Reference: patent US11345694B2, “Antibacterial compounds” (DISCUVA LTD., priority 2017, dated 2022)
In brackets after ≈: the same amount, converted by molar mass.

Key:
[1] = tested on: human hepatocarcinoma cell line ATCC HB-8065 (HepG2); experiment: Human cell viability (CellTiter-Glo); assay type: cell-based; settings: Homo sapiens; HepG2 cells, 24 h incubation, CellTiter-Glo luminescence, 0.2-100 μM; read-out: IC50 values against the HepG2 cell line
In short: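 HepG2 cells were seeded at 20,000 cells/well in MEM with 10% FBS and, after 24 h, exposed for 24 h at 37° C. to two-fold dilutions (final 0.2-100 μM) in MEM with 1% FBS and 1% DMSO. Viability was read by CellTiter-Glo luminescence, with IC50 from a 4-parameter logistic fit.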

[2] = tested on: K. pneumoniae H154600588 (KP8); experiment: MIC broth microdilution; assay type: cell-based, Klebsiella pneumoniae; settings: Klebsiella pneumoniae
In short: (§1)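 Following CLSI broth microdilution guidance, compounds were serially diluted two-fold to final concentrations of 0.39-200 μM. Planktonic cultures in cation-adjusted Müller-Hinton broth were then incubated 20-24 hours at 37° C, and the lowest concentration preventing growth was recorded as MIC.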

[3] = tested on: K. pneumoniae H154640784 (KP7); experiment: MIC broth microdilution; assay type: cell-based, Klebsiella pneumoniae; settings: Klebsiella pneumoniae
In short: as §1

[4] = tested on: K. pneumoniae ATCC 700603 (KP3); experiment: MIC broth microdilution; assay type: cell-based, Klebsiella pneumoniae; settings: Klebsiella pneumoniae, ATCC700603
In short: as §1

[5] = tested on: K. pneumoniae H154020667 (KP6); experiment: MIC broth microdilution; assay type: cell-based, Klebsiella pneumoniae; settings: Klebsiella pneumoniae
In short: as §1

[6] = tested on: K. pneumoniae H154300688 (KP9); experiment: MIC broth microdilution; assay type: cell-based, Klebsiella pneumoniae; settings: Klebsiella pneumoniae
In short: as §1

[7] = tested on: K. pneumoniae NCTC 13438 (KP1); experiment: MIC broth microdilution; assay type: cell-based, Klebsiella pneumoniae; settings: Klebsiella pneumoniae, NCTC13438
In short: as §1

[8] = tested on: K. pneumoniae H151440671 (KP10); experiment: MIC broth microdilution; assay type: cell-based, Klebsiella pneumoniae; settings: Klebsiella pneumoniae
In short: as §1

[9] = tested on: K. pneumoniae H154680676 (KP5); experiment: MIC broth microdilution; assay type: cell-based, Klebsiella pneumoniae; settings: Klebsiella pneumoniae
In short: as §1

[10] = tested on: Staphylococcus aureus ATCC 35556 (SA); experiment: MIC broth microdilution; assay type: cell-based; settings: for MIC: ATCC35556
In short: (§2)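 Growth inhibition of planktonic bacteria by CLSI-guided broth microdilution, cation-adjusted Müller-Hinton medium, 37° C for 20-24 h; MIC from a 0.39-200 μM two-fold series.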

[11] = tested on: Escherichia coli K12 (EC); experiment: MIC broth microdilution; assay type: cell-based
In short: as §2

[12] = tested on: Acinetobacter baumannii ATCC 17978 (AB); experiment: MIC broth microdilution; assay type: cell-based; settings: for MIC: ATCC17978
In short: as §2

[13] = tested on: Pseudomonas aeruginosa ATCC 33359 (PA); experiment: MIC broth microdilution; assay type: cell-based; settings: for MIC: ATCC33359
In short: as §2

[14] = tested on: Klebsiella pneumoniae ATCC 10031 (KP2); experiment: MIC broth microdilution; assay type: cell-based; settings: ATCC10031
In short: as §1

[15] = tested on: E. coli NCTC 13441 (UPEC); experiment: MIC broth microdilution; assay type: cell-based, Escherichia coli; settings: for MIC: Escherichia coli, NCTC13441
In short: as §2

[16] = tested on: Klebsiella pneumoniae ATCC 51504 (KP4); experiment: MIC broth microdilution; assay type: cell-based; settings: ATCC51504
In short: as §2

[17] = tested on: Salmonella typhimurium XNAA5 (St); experiment: MIC broth microdilution; assay type: cell-based
In short: as §2

[18] = tested on: Serratia marcescens SL1344 (Sm); experiment: MIC broth microdilution; assay type: cell-based
In short: as §2

Row | SMILES | IC50 [1] [µM] | MIC [2] [µM] | MIC [3] [µM] | MIC [4] [µM] | MIC [5] [µM] | MIC [6] [µM] | MIC [7] [µM] | MIC [8] [µM] | MIC [9] [µM] | MIC [10] [µM] | MIC [11] [µM] | MIC [12] [µM] | MIC [13] [µM] | MIC [14] [µM] | MIC [15] [µM] | MIC [16] [µM] | other results
1 | Cc1cc(-c2[nH]c(N)nc2-c2ccc3c(c2)OCO3)ccn1 [Example 26, 4-(Benzo[d][1,3]dioxol-5-yl)-5-(2-methylpyridin-4-yl)-1H-imidazol-2-amine] | > 100 | 10 to 100 (≈ 2.94 to 29.4 µg/mL) | 10 to 100 (≈ 2.94 to 29.4 µg/mL) | 10 to 100 (≈ 2.94 to 29.4 µg/mL) | 1 to 10 (≈ 0.294 to 2.94 µg/mL) | 1 to 10 (≈ 0.294 to 2.94 µg/mL) | 10 to 100 (≈ 2.94 to 29.4 µg/mL) | 1 to 10 (≈ 0.294 to 2.94 µg/mL) | 1 to 10 (≈ 0.294 to 2.94 µg/mL) | > 100 | ≤ 1 | > 100 | > 100 | ≤ 1 | 1 to 10 (≈ 0.294 to 2.94 µg/mL) |  | 
2 | Cc1cc(-c2[nH]c(N)nc2-c2ccc3c(c2)N(CC2CC2)CCO3)ccn1 [Example 92, 4-(4-(Cyclopropyl-methyl)-3,4-dihydro-2H-benzo[b][1,4]oxazin-6-yl)-5-(2-methylpyridin-4-yl)-1H-imidazol-2-amine] | 25 to 100 | 1 to 10 (≈ 0.361 to 3.61 µg/mL) | 1 to 10 (≈ 0.361 to 3.61 µg/mL) | 1 to 10 (≈ 0.361 to 3.61 µg/mL) | ≤ 1 | 1 to 10 (≈ 0.361 to 3.61 µg/mL) | 1 to 10 (≈ 0.361 to 3.61 µg/mL) | 1 to 10 (≈ 0.361 to 3.61 µg/mL) | ≤ 1 | > 100 | ≤ 1 | > 100 | > 100 | ≤ 1 | 1 to 10 (≈ 0.361 to 3.61 µg/mL) | 1 to 10 (≈ 0.361 to 3.61 µg/mL) | 
3 | Cc1cc(-c2[nH]c(N)nc2-c2ccc3c(c2)N(C(=O)CN)CCO3)ccn1 [Example 62, 2-Amino-1-(6-(2-amino-5-(2-methylpyridin-4-yl)-1H-imidazol-4-yl)-2,3-dihydro-4H-benzo[b][1,4]oxazin-4-yl)ethan-1-one] | > 100 | 10 to 100 (≈ 3.64 to 36.4 µg/mL) | 1 to 10 (≈ 0.364 to 3.64 µg/mL) | 1 to 10 (≈ 0.364 to 3.64 µg/mL) | 1 to 10 (≈ 0.364 to 3.64 µg/mL) | 1 to 10 (≈ 0.364 to 3.64 µg/mL) | 1 to 10 (≈ 0.364 to 3.64 µg/mL) | 1 to 10 (≈ 0.364 to 3.64 µg/mL) | 1 to 10 (≈ 0.364 to 3.64 µg/mL) | > 100 | 1 to 10 (≈ 0.364 to 3.64 µg/mL) | > 100 | > 100 | ≤ 1 | ≤ 1 | 1 to 10 (≈ 0.364 to 3.64 µg/mL) | 
4 | Nc1nc(-c2ccc3c(c2)NCCO3)c(-c2ccnc(Cl)c2)[nH]1 [Example 45, 5-(2-Chloropyridin-4-yl)-4-(3,4-dihydro-2H-benzo[b][1,4]oxazin-6-yl)-1H-imidazol-2-amine] | > 100 | 10 to 100 (≈ 3.28 to 32.8 µg/mL) | 1 to 10 (≈ 0.328 to 3.28 µg/mL) | 1 to 10 (≈ 0.328 to 3.28 µg/mL) | 1 to 10 (≈ 0.328 to 3.28 µg/mL) | 1 to 10 (≈ 0.328 to 3.28 µg/mL) | 1 to 10 (≈ 0.328 to 3.28 µg/mL) | 1 to 10 (≈ 0.328 to 3.28 µg/mL) | 1 to 10 (≈ 0.328 to 3.28 µg/mL) | > 100 | ≤ 1 | > 100 | > 100 | ≤ 1 | ≤ 1 | 1 to 10 (≈ 0.328 to 3.28 µg/mL) | 
5 | O=C(O)c1cn(C2CC2)c2cc(N3CCNCC3)c(F)cc2c1=O [CIP] |  |  |  |  |  |  |  |  |  |  |  |  |  |  |  |  | MIC SA [10]: B (a MIC of from 1 to 10 is assigned the letter B); MIC EC [11]: A (an MIC (μM) of less or equal to 1 is assigned the letter A); MIC St [17]: A (an MIC (μM) of less or equal to 1 is assigned the letter A); MIC Sm [18]: A (an MIC (μM) of less or equal to 1 is assigned the letter A); MIC AB [12]: A (an MIC (μM) of less or equal to 1 is assigned the letter A); MIC PA [13]: B (a MIC of from 1 to 10 is assigned the letter B); MIC UPEC [15]: D (a MIC of over 100 is assigned the letter D)
6 | CCN1CCOc2ccc(-c3nc(N)[nH]c3-c3ccnc(C)c3)cc21 [Example 57, 4-(4-Ethyl-3,4-dihydro-2H-benzo[b][1,4]oxazin-6-yl)-5-(2-methylpyridin-4-yl)-1H-imidazol-2-amine] | > 100 | 1 to 10 (≈ 0.335 to 3.35 µg/mL) | 1 to 10 (≈ 0.335 to 3.35 µg/mL) | 1 to 10 (≈ 0.335 to 3.35 µg/mL) | ≤ 1 | 1 to 10 (≈ 0.335 to 3.35 µg/mL) | 1 to 10 (≈ 0.335 to 3.35 µg/mL) | ≤ 1 | ≤ 1 | > 100 | ≤ 1 | > 100 | > 100 | ≤ 1 | 1 to 10 (≈ 0.335 to 3.35 µg/mL) | ≤ 1 | 
